Test results: PubChem BioAssay AID1259407 (Chemical Carcinogenesis Research Information System (CCRIS), 2018)
Active and inactive are the calls of the source. No rule for the calls is given here.

Test system: CCRIS mutagenicity, Ames/micronucleus/aberration tests
Assay: CCRIS mutagenicity studies
Conditions: Test System: AMES SALMONELLA TYPHIMURIUM
[1] = Strain/Indicator: TA97, Metabolic Activation: NONE, Method: PREINCUBATION
[2] = Strain/Indicator: TA98, Metabolic Activation: NONE, Method: PREINCUBATION
[3] = Strain/Indicator: TA100, Metabolic Activation: NONE, Method: PREINCUBATION
[4] = Strain/Indicator: TA102, Metabolic Activation: NONE, Method: PREINCUBATION
[5] = Strain/Indicator: TA98, Metabolic Activation: NONE, Method: STANDARD PLATE
[6] = Strain/Indicator: TA98, Metabolic Activation: RAT, LIVER, S-9, AROCLOR 1254, Method: STANDARD PLATE
[7] = Strain/Indicator: TA100, Metabolic Activation: NONE, Method: STANDARD PLATE
[8] = Strain/Indicator: TA100, Metabolic Activation: RAT, LIVER, S-9, AROCLOR 1254, Method: STANDARD PLATE
[9] = Strain/Indicator: TA1535, Metabolic Activation: NONE, Method: STANDARD PLATE
[10] = Strain/Indicator: TA1535, Metabolic Activation: RAT, LIVER, S-9, AROCLOR 1254, Method: STANDARD PLATE
[11] = Strain/Indicator: TA1537, Metabolic Activation: NONE, Method: STANDARD PLATE
[12] = Strain/Indicator: TA1537, Metabolic Activation: RAT, LIVER, S-9, AROCLOR 1254, Method: STANDARD PLATE
[13] = Strain/Indicator: TA1538, Metabolic Activation: NONE, Method: STANDARD PLATE
[14] = Strain/Indicator: TA1538, Metabolic Activation: RAT, LIVER, S-9, AROCLOR 1254, Method: STANDARD PLATE

With `Nn1nnc2c([nH]c3ccccc32)c1=O` the mutagenic call [1] was “active; positive”, the mutagenic call (Strain/Indicator: TA97, Metabolic Activation: S-9 (10%), Method: PREINCUBATION) was “active; positive” and the mutagenic call [2] was “active; positive”. For the same compound, the mutagenic call (Strain/Indicator: TA98, Metabolic Activation: S-9 (10%), Method: PREINCUBATION) was “active; positive”, the mutagenic call [3] was “active; positive” and the mutagenic call (Strain/Indicator: TA100, Metabolic Activation: S-9 (10%), Method: PREINCUBATION) was “active; positive”. The mutagenic call [4] was “active; positive” and the mutagenic call (Strain/Indicator: TA102, Metabolic Activation: S-9 (10%), Method: PREINCUBATION) was “active; positive”.
For `C=C(C)C(=O)OCCOCCOC(=O)C(=C)C`, the mutagenic call [5] was “inactive; negative”, the mutagenic call [6] was “inactive; negative” and the mutagenic call (Strain/Indicator: TA98, Metabolic Activation: RAT, LIVER, S-9, SODIUM PHENOBARBITAL, Method: STANDARD PLATE) was “inactive; negative”. For the same compound, the mutagenic call [7] was “inactive; negative”, the mutagenic call [8] was “inactive; negative” and the mutagenic call (Strain/Indicator: TA100, Metabolic Activation: RAT, LIVER, S-9, SODIUM PHENOBARBITAL, Method: STANDARD PLATE) was “inactive; negative”. The mutagenic call [9] was “inactive; negative”, the mutagenic call [10] was “inactive; negative” and the mutagenic call (Strain/Indicator: TA1535, Metabolic Activation: RAT, LIVER, S-9, SODIUM PHENOBARBITAL, Method: STANDARD PLATE) was “inactive; negative”. The mutagenic call [11] was “inactive; negative”, the mutagenic call [12] was “inactive; negative” and the mutagenic call (Strain/Indicator: TA1537, Metabolic Activation: RAT, LIVER, S-9, SODIUM PHENOBARBITAL, Method: STANDARD PLATE) was “inactive; negative”. The mutagenic call [13] was “inactive; negative”, the mutagenic call [14] was “inactive; negative” and the mutagenic call (Strain/Indicator: TA1538, Metabolic Activation: RAT, LIVER, S-9, SODIUM PHENOBARBITAL, Method: STANDARD PLATE) was “inactive; negative”.
For `CC(C)=CCC1=C(O)c2ccccc2C(=O)C1=O`, the mutagenic call [1] was “inactive; negative”, the mutagenic call (Strain/Indicator: TA97, Metabolic Activation: RAT, LIVER, S-9, PHENOBARBITAL AND 5,6-BENZOFLAVONE, Method: PREINCUBATION) was “inactive; negative” and the mutagenic call (Strain/Indicator: TA98, Metabolic Activation: HAMSTER, LIVER, S-9, AROCLOR 1254, Method: STANDARD PLATE) was “inactive; negative”. The mutagenic call [2] was “inactive; negative”, the mutagenic call [5] was “inactive; negative” and the mutagenic call [6] was “inactive; negative”. The mutagenic call (Strain/Indicator: TA98, Metabolic Activation: RAT, LIVER, S-9, PHENOBARBITAL AND 5,6-BENZOFLAVONE, Method: PREINCUBATION) was “inactive; negative”, the mutagenic call (Strain/Indicator: TA100, Metabolic Activation: HAMSTER, LIVER, S-9, AROCLOR 1254, Method: STANDARD PLATE) was “inactive; negative” and the mutagenic call [3] was “inactive; negative”. The mutagenic call [7] was “inactive; negative”, the mutagenic call [8] was “inactive; negative” and the mutagenic call (Strain/Indicator: TA100, Metabolic Activation: RAT, LIVER, S-9, PHENOBARBITAL AND 5,6-BENZOFLAVONE, Method: PREINCUBATION) was “inactive; negative”. The mutagenic call [4] was “inactive; negative”, the mutagenic call (Strain/Indicator: TA102, Metabolic Activation: RAT, LIVER, S-9, PHENOBARBITAL AND 5,6-BENZOFLAVONE, Method: PREINCUBATION) was “inactive; negative” and the mutagenic call (Strain/Indicator: TA104, Metabolic Activation: NONE, Method: PREINCUBATION) was “inactive; negative”. For the same compound, the mutagenic call (Strain/Indicator: TA104, Metabolic Activation: RAT, LIVER, S-9, PHENOBARBITAL AND 5,6-BENZOFLAVONE, Method: PREINCUBATION) was “inactive; negative”, the mutagenic call (Strain/Indicator: TA1535, Metabolic Activation: HAMSTER, LIVER, S-9, AROCLOR 1254, Method: STANDARD PLATE) was “inactive; negative” and the mutagenic call (Strain/Indicator: TA1535, Metabolic Activation: NONE, Method: PREINCUBATION) was “inactive; negative”. For the same compound, the mutagenic call [9] was “inactive; negative”, the mutagenic call [10] was “inactive; negative” and the mutagenic call (Strain/Indicator: TA1535, Metabolic Activation: RAT, LIVER, S-9, PHENOBARBITAL AND 5,6-BENZOFLAVONE, Method: PREINCUBATION) was “inactive; negative”. The mutagenic call (Strain/Indicator: TA1537, Metabolic Activation: HAMSTER, LIVER, S-9, AROCLOR 1254, Method: STANDARD PLATE) was “inactive; negative”, the mutagenic call (Strain/Indicator: TA1537, Metabolic Activation: NONE, Method: PREINCUBATION) was “inactive; negative” and the mutagenic call [11] was “inactive; negative”. The mutagenic call [12] was “inactive; negative”, the mutagenic call (Strain/Indicator: TA1537, Metabolic Activation: RAT, LIVER, S-9, PHENOBARBITAL AND 5,6-BENZOFLAVONE, Method: PREINCUBATION) was “inactive; negative” and the mutagenic call (Strain/Indicator: TA1538, Metabolic Activation: HAMSTER, LIVER, S-9, AROCLOR 1254, Method: STANDARD PLATE) was “inactive; negative”. For the same compound, the mutagenic call (Strain/Indicator: TA1538, Metabolic Activation: NONE, Method: PREINCUBATION) was “inactive; negative”, the mutagenic call [13] was “inactive; negative” and the mutagenic call [14] was “inactive; negative”. For the same compound, the mutagenic call (Strain/Indicator: TA1538, Metabolic Activation: RAT, LIVER, S-9, PHENOBARBITAL AND 5,6-BENZOFLAVONE, Method: PREINCUBATION) was “inactive; negative”, the mutagenic call (Strain/Indicator: TA2637, Metabolic Activation: NONE, Method: PREINCUBATION) was “inactive; negative” and the mutagenic call (Strain/Indicator: TA2637, Metabolic Activation: RAT, LIVER, S-9, PHENOBARBITAL AND 5,6-BENZOFLAVONE, Method: PREINCUBATION) was “inactive; negative”.
For `O=CCO`, the mutagenic call [3] was “inactive; negative”.
`CC(=O)Nc1ccc2ccc3cccc4ccc1c2c34` was tested, and the mutagenic call (Strain/Indicator: TA98(1,8-DNP6), Metabolic Activation: NONE, Method: STANDARD PLATE) was “inactive; negative”, the mutagenic call (Strain/Indicator: TA98(1,8-DNP6), Metabolic Activation: RAT, LIVER, S-9, AROCLOR 1254, Method: STANDARD PLATE) was “inactive; negative” and the mutagenic call (Strain/Indicator: TA98(NR), Metabolic Activation: NONE, Method: STANDARD PLATE) was “inactive; negative”. The mutagenic call (Strain/Indicator: TA98(NR), Metabolic Activation: RAT, LIVER, S-9, AROCLOR 1254, Method: STANDARD PLATE) was “active; positive”, the mutagenic call [5] was “inactive; negative” and the mutagenic call [6] was “active; positive”.
